The results in this text go back to ChEMBL document CHEMBL4118148, “Design, synthesis and cardiovascular evaluation of some aminoisopropanoloxy derivatives of xanthone” (Bioorg Med Chem, 2018).

Each structure is given as a SMILES string. The source made the active and inactive calls. No cut-off for these calls is given here.

Data set [1] has as its target T1, Adrenergic receptor alpha-1 (Rattus norvegicus, UniProt P15823+P23944+P43140).
T1 sequence (P15823 whole entry): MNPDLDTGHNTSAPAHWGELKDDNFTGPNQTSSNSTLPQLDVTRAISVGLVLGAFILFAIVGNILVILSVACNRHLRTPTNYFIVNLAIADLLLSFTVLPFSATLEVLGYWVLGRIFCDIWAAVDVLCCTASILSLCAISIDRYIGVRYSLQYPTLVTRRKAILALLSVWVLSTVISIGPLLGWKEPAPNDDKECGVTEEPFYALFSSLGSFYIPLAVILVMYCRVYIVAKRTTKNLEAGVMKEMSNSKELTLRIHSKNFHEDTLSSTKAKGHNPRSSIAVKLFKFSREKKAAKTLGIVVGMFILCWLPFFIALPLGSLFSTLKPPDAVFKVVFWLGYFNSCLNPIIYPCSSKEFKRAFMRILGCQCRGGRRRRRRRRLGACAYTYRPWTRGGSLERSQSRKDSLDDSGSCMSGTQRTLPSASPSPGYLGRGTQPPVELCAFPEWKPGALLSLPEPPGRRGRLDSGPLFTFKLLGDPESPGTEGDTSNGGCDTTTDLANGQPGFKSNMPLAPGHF
T1 sequence (P23944 whole entry): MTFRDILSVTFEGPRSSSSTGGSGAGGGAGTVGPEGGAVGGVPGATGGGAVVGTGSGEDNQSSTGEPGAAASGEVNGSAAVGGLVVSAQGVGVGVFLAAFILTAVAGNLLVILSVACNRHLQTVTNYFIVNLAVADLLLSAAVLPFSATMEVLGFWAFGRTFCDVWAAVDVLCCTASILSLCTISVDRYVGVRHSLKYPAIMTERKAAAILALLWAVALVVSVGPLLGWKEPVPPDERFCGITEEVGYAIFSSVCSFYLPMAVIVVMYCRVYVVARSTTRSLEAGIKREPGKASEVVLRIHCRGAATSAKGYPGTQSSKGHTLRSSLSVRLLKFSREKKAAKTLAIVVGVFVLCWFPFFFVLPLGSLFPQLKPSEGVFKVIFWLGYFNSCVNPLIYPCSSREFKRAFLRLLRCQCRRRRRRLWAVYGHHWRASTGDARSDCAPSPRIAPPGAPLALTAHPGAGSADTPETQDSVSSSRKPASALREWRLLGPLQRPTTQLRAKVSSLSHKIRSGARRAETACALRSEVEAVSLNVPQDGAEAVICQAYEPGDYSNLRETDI
T1 sequence (P43140 whole entry): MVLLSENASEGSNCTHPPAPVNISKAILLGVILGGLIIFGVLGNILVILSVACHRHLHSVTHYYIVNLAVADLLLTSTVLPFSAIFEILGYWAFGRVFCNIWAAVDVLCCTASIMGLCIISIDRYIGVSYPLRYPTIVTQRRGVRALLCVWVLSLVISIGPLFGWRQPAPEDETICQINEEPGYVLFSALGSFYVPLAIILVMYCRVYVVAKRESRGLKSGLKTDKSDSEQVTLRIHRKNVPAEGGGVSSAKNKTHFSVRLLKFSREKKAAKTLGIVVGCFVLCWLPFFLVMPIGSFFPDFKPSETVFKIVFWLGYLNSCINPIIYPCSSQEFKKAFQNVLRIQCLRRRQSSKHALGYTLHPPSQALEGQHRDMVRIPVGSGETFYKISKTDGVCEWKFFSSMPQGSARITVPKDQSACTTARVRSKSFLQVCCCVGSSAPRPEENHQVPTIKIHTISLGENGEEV
Nature of the data set: Displacement of [3H][…]prazosin from adrenergic alpha1 receptor in Wistar rat cortex incubated for 30 mins by microbeta liquid scintillation counting analysis. For orientation: Loss of bound radioactivity is the signal in a displacement assay; it reports binding, not function.

The target of data set [2] is Adrenergic receptor alpha-2 (Rattus norvegicus) (UniProt P22086+P19328+P22909). Nature of the data set: Displacement of [3H]-clonidine from adrenergic alpha2 receptor in Wistar rat cortex at 10^-5 M incubated for 25 mins by microbeta liquid scintillation counting analysis.
In data set [3] the target is Beta-1 adrenergic receptor (Rattus norvegicus, UniProt P18090). Nature of the data set: Displacement of [3H]-CGP-12177 from adrenergic beta1 receptor in Wistar rat cortex incubated for 60 mins by microbeta liquid scintillation counting analysis.
Data set [4] concerns Rattus norvegicus. Nature of the data set: Hypotensive activity in normotensive Wistar rat assessed as systolic blood pressure at 5 mg/kg, iv measured after 5 mins (reference value: 119.2 to 148.6 mmHg). It counts as functional.
In data set [5] the test system is Rattus norvegicus. Nature of the data set: Hypotensive activity in normotensive Wistar rat assessed as systolic blood pressure at 5 mg/kg, iv measured after 10 mins (reference value: 119.2 to 148.6 mmHg). It counts as functional.
Data set [6] concerns Rattus norvegicus. Nature of the data set: Hypotensive activity in normotensive Wistar rat assessed as diastolic blood pressure at 5 mg/kg, iv measured after 10 mins (reference value: 86.5 to 119.4 mmHg). Type of data set: functional.
Data set [7] concerns Rattus norvegicus. Nature of the data set: Hypotensive activity in normotensive Wistar rat assessed as diastolic blood pressure at 5 mg/kg, iv measured after 20 mins (reference value: 86.5 to 119.4 mmHg). Type of data set: functional.
In data set [8] the test system is Rattus norvegicus. Nature of the data set: Hypotensive activity in normotensive Wistar rat assessed as diastolic blood pressure at 5 mg/kg, iv measured after 60 mins (reference value: 86.5 to 119.4 mmHg). It counts as functional.
Data set [9] relates to Rattus norvegicus. Nature of the data set: Cardiotoxicity in Wistar rat assessed as effect on heart rate at 5 mg/kg, iv measured after 1 min (reference value: 323 to 374.5 bpm). It counts as toxicity, organism-based. The following applies: in vivo.
Data set [10] has as its system Rattus norvegicus. Nature of the data set: Cardiotoxicity in Wistar rat assessed as effect on PQ interval time at 5 mg/kg, iv measured after 1 min (reference value: 52 to 57 ms). It counts as toxicity, organism-based. As to conditions: in vivo.
The subject of data set [11] is Rattus norvegicus. Nature of the data set: Cardiotoxicity in Wistar rat assessed as effect on QT interval time at 5 mg/kg, iv measured after 1 min (reference value: 57.7 to 61 ms). It counts as toxicity, organism-based. As to conditions: in vivo.
For data set [12], the system named is Rattus norvegicus. Nature of the data set: Cardiotoxicity in Wistar rat assessed as effect on QTC interval time at 5 mg/kg, iv measured after 1 min (reference value: 136.7 to 146.2 ms). Type of data set: toxicity, organism-based. As to conditions: in vivo.
Data set [13] has as its system Rattus norvegicus. Nature of the data set: Cardiotoxicity in Wistar rat assessed as effect on heart rate at 5 mg/kg, iv measured after 5 mins (reference value: 323 to 374.5 bpm). It counts as toxicity, organism-based. As to conditions: in vivo.
For data set [14], the system named is Rattus norvegicus. Nature of the data set: Cardiotoxicity in Wistar rat assessed as effect on PQ interval time at 5 mg/kg, iv measured after 5 mins (reference value: 52 to 57 ms). Type of data set: toxicity, organism-based. The following applies: in vivo.
The subject of data set [15] is Rattus norvegicus. Nature of the data set: Cardiotoxicity in Wistar rat assessed as effect on QRS interval time at 5 mg/kg, iv measured after 5 mins (reference value: 16.7 to 20.7 ms). The following applies: in vivo. It counts as toxicity, organism-based.
In data set [16] the test system is Rattus norvegicus. Nature of the data set: Cardiotoxicity in Wistar rat assessed as effect on QT interval time at 5 mg/kg, iv measured after 5 mins (reference value: 57.7 to 61 ms). Type of data set: toxicity, organism-based. As to conditions: in vivo.
Data set [17] has as its system Rattus norvegicus. Nature of the data set: Cardiotoxicity in Wistar rat assessed as effect on QTC interval time at 5 mg/kg, iv measured after 5 mins (reference value: 136.7 to 146.2 ms). Type of data set: toxicity, organism-based. The following applies: in vivo.
Data set [18] deals with Rattus norvegicus. Nature of the data set: Cardiotoxicity in Wistar rat assessed as effect on PQ interval time at 5 mg/kg, iv measured after 15 mins (reference value: 52 to 57 ms). It counts as toxicity, organism-based. As to conditions: in vivo, 0.25 h.
Another data set relates to Blood. Nature of the data set: Anti-aggregative activity in Wistar rat whole blood assessed as inhibition of collagen-induced aggregation preincubated for 3 mins followed by collagen induction measured for 6 mins. Type of data set: functional, tissue-based.

Sequence of Beta-1 adrenergic receptor (P18090 whole entry): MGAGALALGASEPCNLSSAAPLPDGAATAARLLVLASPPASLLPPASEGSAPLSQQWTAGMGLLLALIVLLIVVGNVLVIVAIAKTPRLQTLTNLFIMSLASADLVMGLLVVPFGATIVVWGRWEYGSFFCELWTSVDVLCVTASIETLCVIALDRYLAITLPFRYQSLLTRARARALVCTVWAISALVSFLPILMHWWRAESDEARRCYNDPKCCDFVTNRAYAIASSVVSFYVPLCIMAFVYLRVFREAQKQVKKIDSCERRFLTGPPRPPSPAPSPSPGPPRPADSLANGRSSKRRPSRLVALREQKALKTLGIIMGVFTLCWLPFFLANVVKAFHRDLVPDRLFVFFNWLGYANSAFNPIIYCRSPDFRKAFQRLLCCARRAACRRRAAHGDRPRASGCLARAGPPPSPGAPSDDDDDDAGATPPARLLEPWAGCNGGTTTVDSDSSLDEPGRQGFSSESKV

For `Cl.O=c1c2ccccc2oc2c(OCC(O)CN3CCN(c4ccccn4)CC3)cccc12` (racemic), the results for the IC50 (in [1]; in data set [3]; in the data set with Blood) were 171 nM, 1420 nM and 64100 nM, respectively. In addition, the result in data set [2] was inactive. Further, the Ki (in general, a measure of affinity in units of concentration, obtained from inhibition or displacement) in data set [3] was 213 nM. Moreover, the Activity was 136.8 mmHg with Rattus norvegicus [4]; 131.4 mmHg with Rattus norvegicus [5]; 106 mmHg with Rattus norvegicus [6]; 102.6 mmHg with Rattus norvegicus [7]; 96.6 mmHg in the data set with Rattus norvegicus [8]; 368.2 bpm in the data set with Rattus norvegicus [9]. Besides, the Activity in the data set with Rattus norvegicus [13] is 356 bpm. The Time with Rattus norvegicus [10] is on record as 58.2 ms; in the data set with Rattus norvegicus [11] it was 58.7 ms; with Rattus norvegicus [12] it was 145.4 ms; with Rattus norvegicus [14] it was 58 ms; with Rattus norvegicus [15], 18 ms; in the data set on Rattus norvegicus [16] it was 59.5 ms. The Time is 144.8 ms in the data set on Rattus norvegicus [17] and 59 ms in the data set with Rattus norvegicus [18]. The inhibition entry in the data set with Blood is “Dose-dependent effect”.
